Test results: US7208500B2, “Thienopyridine-phenylacetamides and their derivatives useful as new anti-angiogenic agents” (Agouron Pharmaceuticals, Inc., priority 2003, dated 2007)

Tests used:
[1] = target: T1, unphosphorylated VEGF-R2D50 (FLVK), cytosolic domain of human VEGF-R2 (Homo sapiens, UniProt P35968, DEL940-989/E990V); experiment: VEGF-R2 coupled spectrophotometric assay (FLVK); format: biochemical
T1 construct: VEGF-R2D50 contains residues 806–939 and 990–1171; made in house; host or cells: baculovirus/insect cell system
From the text: This construct determines the ability of a test compound to inhibit tyrosine kinase activity. A construct (VEGF-R2D50) of the cytosolic domain of human vascular endothelial growth factor receptor 2 (VEGF-R2) lacking the 50 central residues of the 68 residues of the kinase insert domain was expressed in a baculovirus/insect cell system. Of the 1356 residues of full-length VEGF-R2, VEGF-R2D50 contains residues 806–939 and 990–1171, and also one point mutation (E990V) within the kinase insert domain relative to wild-type VEGF-R2. Autophosphorylation of the purified construct was performed by incubation of the enzyme at a concentration of […] in the presence of 3 mM ATP and 40 mM MgCl2 in 100 mM HEPES, pH 7.5, containing 5% glycerol and 5 mM DTT, at 4° C. for 2 h. […] See Parast et al., Biochemistry, 37, 16788–16801 (1998).
The production of ADP from ATP that accompanies phosphoryl transfer was coupled to oxidation of NADH using phosphoenolpyruvate (PEP) and a system having pyruvate kinase (PK) and lactic dehydrogenase (LDH). The oxidation of NADH was monitored by following the decrease of absorbance at 340 nm (e340=6.22 cm^−1 mM^−1) using a Beckman DU 650 spectrophotometer. Assay conditions for phosphorylated VEGF-R2D50 (indicated as FLVK-P in the tables below) were the following: 1 mM PEP; […]; 50 units of LDH/mL; 20 units of PK/mL; 5 mM DTT; 5.1 mM poly(E4Y1); 1 mM ATP; and 25 mM MgCl2 in 200 mM HEPES, pH 7.5. Assay conditions for unphosphorylated VEGF-R2D50 (indicated as FLVK in the tables) were the following: 1 mM PEP; […]; 50 units of LDH/mL; 20 units of PK/mL; 5 mM DTT; 20 mM poly(E4Y1); 3 mM ATP; and 60 mM MgCl2 and 2 mM MnCl2 in 200 mM HEPES, pH 7.5. Assays were initiated with 5 to 40 nM of enzyme. Ki values were determined by measuring enzyme activity in the presence of varying concentrations of test compounds. The percent inhibition at 50 nm (% inhibition@50 nm) was determined by linear least-squares regression analysis of absorpbance as a function of time. The binding inhibitions were fitted to equation as described by Morrison. The data were analyzed using Enzyme Kinetic and Kaleidagraph software.

[2] = system: human umbilical vein endothelial cells (HUVEC); experiment: HUVEC + VEGF proliferation assay; format: cell-based; conditions: VEGF-stimulated proliferation, final VEGF 6 ng/mL, 72 hours, MTT
Procedure: This assay determines the ability of a test compound to inhibit the growth factor-stimulated proliferation of human umbilical vein endothelial cells (“HUVEC”). HUVEC cells (passage 3–4, Clonetics, Corp.) were thawed into EGM2 culture medium (Clonetics Corp) in T75 flasks. Fresh EGM2 medium was added to the flasks 24 hours later. Four or five days later, cells were exposed to another culture medium (F12K medium supplemented with 10% fetal bovine serum (FBS), […] endothelial cell growth supplement (ECGS), and 0.1 mg/mL heparin). Exponentially-growing HUVEC cells were used in experiments thereafter. Ten to twelve thousand HUVEC cells were plated in 96-well dishes in […] of rich, culture medium (described above). The cells were allowed to attach for 24 hours in this medium. The medium was then removed by aspiration and […] of starvation media (F12K+1% FBS) was added to each well. After 24 hours, […] of test agent dissolved in 1% DMSO in starvation medium or this vehicle alone was added into each treatment well; the final DMSO concentration was 0.1%. One hour later, […] of VEGF (30 ng/mL) in starvation media was added to all wells except those containing untreated controls; the final VEGF concentration was 6 ng/mL. Cellular proliferation was quantified 72 hours later by MTT dye reduction, at which time cells were exposed for 4 hours MTT (Promega Corp.). Dye reduction was stopped by addition of a stop solution (Promega Corp.) and absorbance at 595 nm was determined on a 96-well spectrophotometer plate reader.

[3] = target: T2, FGF-R1 intracellular kinase domain (Homo sapiens, UniProt P11362, C488A/C584S/L457V); experiment: FGF-R spectrophotometric assay; format: biochemical; conditions: 50 nM test compound; read-out: FGF-P (% inh @ 50 nM)
T2 construct: starting from the endogenous methionine residue 456 to glutamate 766; made in house; host or cells: baculovirus vector expression system
Procedure: The intracellular kinase domain of human FGF-R1 was expressed using the baculovirus vector expression system starting from the endogenous methionine residue 456 to glutamate 766, according to the residue numbering system of Mohammadi et al., Mol. Cell. Biol., 16, 977–989 (1996). In addition, the construct also has the following 3 amino acid substitutions: L457V, C488A, and C584S.
The spectrophotometric assay was carried out as described above for VEGF-R2, except for the following changes in concentration: FGF-R=50 nM, ATP=2 mM, and poly(E4Y1)=15 mM.

T1 sequence (P35968 with tags, fused parts or gaps DEL940-989/E990V limits assumed): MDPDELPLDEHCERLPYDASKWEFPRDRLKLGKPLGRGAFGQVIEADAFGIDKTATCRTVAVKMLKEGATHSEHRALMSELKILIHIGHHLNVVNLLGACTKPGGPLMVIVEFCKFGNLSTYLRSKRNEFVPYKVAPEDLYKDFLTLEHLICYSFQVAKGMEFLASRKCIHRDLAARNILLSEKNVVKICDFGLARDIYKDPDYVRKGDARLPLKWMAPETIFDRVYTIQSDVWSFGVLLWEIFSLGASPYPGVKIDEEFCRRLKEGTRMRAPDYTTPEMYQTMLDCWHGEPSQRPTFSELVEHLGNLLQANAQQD
T2 sequence (P11362 456-766 L457V/C488A/C584S): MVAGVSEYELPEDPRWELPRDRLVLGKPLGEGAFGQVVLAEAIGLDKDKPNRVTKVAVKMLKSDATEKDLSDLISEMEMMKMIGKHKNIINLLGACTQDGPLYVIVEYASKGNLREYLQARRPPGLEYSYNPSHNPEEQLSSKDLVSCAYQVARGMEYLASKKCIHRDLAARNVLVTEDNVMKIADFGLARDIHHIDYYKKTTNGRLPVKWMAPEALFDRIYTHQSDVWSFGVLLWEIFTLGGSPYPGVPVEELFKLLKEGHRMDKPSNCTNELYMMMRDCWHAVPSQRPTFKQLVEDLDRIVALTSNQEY

| Ki [1] | inhibition at 0.05 µM [3] | SMILES | IC50 [2] |
| --- | --- | --- | --- |
| < 1 nM | 5 to 10% | Cc1cc(C)nc(NC(=O)Cc2ccc(Oc3ccnc4cc(C(=O)N5CC[C@@H](O)C5)sc34)cc2)c1 [Example 14, N-(4,6-Dimethyl-pyridin-2-yl)-2-{4-[2-((R)-3-hydroxy-pyrrolidine-1-carbonyl)-thieno[3,2-b]pyridin-7-yloxy]-phenyl}-acetamide] | 1 to 10 nM |
| < 1 nM | 0 to 5% | Cc1ccnc(NC(=O)Cc2ccc(Oc3ccnc4cc(C(=O)N5CC[C@@H](O)C5)sc34)cc2)c1 [Example 15, 2-{4-[2-((R)-3-Hydroxy-pyrrolidine-1-carbonyl)-thieno[3,2-b]pyridin-7-yloxy]-phenyl}-N-(4-methyl-pyridin-2-yl)-acetamide] | < 1 nM |
| 1 to 10 nM | 0 to 5% | O=C(Cc1ccc(Oc2ccnc3cc(C(=O)N4CC[C@@H](O)C4)sc23)cc1)Nc1ccc(Cl)cn1 [Example 16, N-(5-Chloro-pyridin-2-yl)-2-{4-[2-((R)-3-hydroxy-pyrrolidine-1-carbonyl)-thieno[3,2-b]pyridin-7-yloxy]-phenyl}-acetamide] | > 10 nM |
| < 1 nM | > 10% | O=C(Cc1ccc(Oc2ccnc3cc(C(=O)N4CC[C@@H](O)C4)sc23)cc1)Nc1cc2ccccc2cn1 [Example 17, 2-{4-[2-((R)-3-Hydroxy-pyrrolidine-1-carbonyl)-thieno[3,2-b]pyridin-7-yloxy]-phenyl}-N-isoquinolin-3-yl-acetamide] | > 10 nM |
| < 1 nM | 5 to 10% | O=C(Cc1ccc(Oc2ccnc3cc(C(=O)N4CC[C@@H](O)C4)sc23)cc1)Nc1ccc(C(F)(F)F)cn1 [Example 18, 2-{4-[2-((R)-3-Hydroxy-pyrrolidine-1-carbonyl)-thieno[3,2-b]pyridin-7-yloxy]-phenyl}-N-(5-trifluoromethyl-pyridin-2-yl)-acetamide] | > 10 nM |
| 1 to 10 nM | 0 to 5% | O=C(Cc1ccc(Oc2ccnc3cc(C(=O)N4CC[C@@H](O)C4)sc23)cc1)Nc1ccccn1 [Example 19, 2-{4-[2-((R)-3-Hydroxy-pyrrolidine-1-carbonyl)-thieno[3,2-b]pyridin-7-yloxy]-phenyl}-N-pyridin-2-yl-acetamide] | > 10 nM |
| 1 to 10 nM | 0 to 5% | O=C(Cc1ccc(Oc2ccnc3cc(C(=O)N4CC[C@@H](O)C4)sc23)cc1)Nc1ccccc1 [Example 20, 2-{4-[2-((R)-3-Hydroxy-pyrrolidine-1-carbonyl)-thieno[3,2-b]pyridin-7-yloxy]-phenyl}-N-phenyl-acetamide] | 1 to 10 nM |
| < 1 nM | 0 to 5% | Cc1ccnc(NC(=O)Cc2ccc(Oc3ccnc4cc(C(=O)N5CCC5)sc34)cc2)c1 [Example 23, 2-{4-[2-(Azetidine-1-carbonyl)-thieno[3,2-b]pyridin-7-yloxy]-phenyl}-N-(4-methyl-pyridin-2-yl)-acetamide] | < 1 nM |
| < 1 nM | 0 to 5% | Cc1ccc(NC(=O)Cc2ccc(Oc3ccnc4cc(C(=O)N5CCC5)sc34)cc2)nc1 [Example 24, 2-{4-[2-(Azetidine-1-carbonyl)-thieno[3,2-b]pyridin-7-yloxy]-phenyl}-N-(5-methyl-pyridin-2-yl)-acetamide] | 1 to 10 nM |
| < 1 nM | 5 to 10% | Cc1cccc(NC(=O)Cc2ccc(Oc3ccnc4cc(C(=O)N5CCC5)sc34)cc2)n1 [Example 25, 2-{4-[2-(Azetidine-1-carbonyl)-thieno[3,2-b]pyridin-7-yloxy]-phenyl}-N-(6-methyl-pyridin-2-yl)-acetamide] | 1 to 10 nM |
| < 1 nM | 0 to 5% | O=C(Cc1ccc(Oc2ccnc3cc(C(=O)N4CCC4)sc23)cc1)Nc1ccc(C(F)(F)F)cn1 [Example 27, 2-{4-[2-(Azetidine-1-carbonyl)-thieno[3,2-b]pyridin-7-yloxy]-phenyl}-N-(5-trifluoromethyl-pyridin-2-yl)-acetamide] | 1 to 10 nM |
| < 1 nM | 5 to 10% | O=C(Cc1ccc(Oc2ccnc3cc(C(=O)N4CCC4)sc23)cc1)Nc1ccc(Cl)cn1 [Example 28, 2-{4-[2-(Azetidine-1-carbonyl)-thieno[3,2-b]pyridin-7-yloxy]-phenyl}-N-(5-chloro-pyridin-2-yl)-acetamide] | < 1 nM |
| 1 to 10 nM | 0 to 5% | O=C(Cc1ccc(Oc2ccnc3cc(C(=O)N4CCC4)sc23)cc1)Nc1ccc(F)cn1 [Example 29, 2-{4-[2-(Azetidine-1-carbonyl)-thieno[3,2-b]pyridin-7-yloxy]-phenyl}-N-(5-fluoro-pyridin-2-yl)-acetamide] | > 10 nM |
| < 1 nM | 0 to 5% | O=C(Cc1ccc(Oc2ccnc3cc(C(=O)N4CCC4)sc23)cc1)Nc1ccc(Br)cn1 [Example 30, 2-{4-[2-(Azetidine-1-carbonyl)-thieno[3,2-b]pyridin-7-yloxy]-phenyl}-N-(5-bromo-pyridin-2-yl)-acetamide] | 1 to 10 nM |
| < 1 nM | 0 to 5% | O=C(Cc1ccc(Oc2ccnc3cc(C(=O)N4CCC4)sc23)cc1)Nc1cc2ccccc2cn1 [Example 31, 2-{4-[2-(Azetidine-1-carbonyl)-thieno[3,2-b]pyridin-7-yloxy]-phenyl}-N-isoquinolin-3-yl-acetamide] | < 1 nM |
| 1 to 10 nM | 0 to 5% | O=C(Cc1ccc(Oc2ccnc3cc(C(=O)N4CCC4)sc23)cc1)Nc1nccc2ccccc12 [Example 32, 2-{4-[2-(Azetidine-1-carbonyl)-thieno[3,2-b]pyridin-7-yloxy]-phenyl}-N-isoquinolin-1-yl-acetamide] | > 10 nM |
| < 1 nM | 0 to 5% | O=C(Cc1ccc(Oc2ccnc3cc(C(=O)N4CCC4)sc23)cc1)Nc1ccc2ccccc2n1 [Example 33, 2-{4-[2-(Azetidine-1-carbonyl)-thieno[3,2-b]pyridin-7-yloxy]-phenyl}-N-quinolin-2-yl-acetamide] | > 10 nM |
| 1 to 10 nM | 5 to 10% | Cc1cc(NC(=O)Cc2ccc(Oc3ccnc4cc(C(=O)N5CCC5)sc34)cc2)no1 [Example 41, 2-{4-[2-(Azetidine-1-carbonyl)-thieno[3,2-b]pyridin-7-yloxy]-phenyl}-N-(5-methyl-isoxazol-3-yl)-acetamide] | 1 to 10 nM |
